Measurements as given in ChEMBL document CHEMBL5154804, “Species-Selective Targeting of Fungal Hsp90: Design, Synthesis, and Evaluation of Novel 4,5-Diarylisoxazole Derivatives for the Combination Treatment of Azole-Resistant Candidiasis” (J Med Chem, 2022).

How the values were obtained:
[1] = tested on: Candida albicans; assay: Synergistic antifungal activity against fluconazole-resistant Candida albicans 901 assessed as inhibition of fungal growth in presence of fluconazole by checker board microdilution assay; format: functional
[2] = tested on: Candida albicans; assay: Synergistic antifungal activity against fluconazole-resistant Candida albicans 904 assessed as inhibition of fungal growth in presence of fluconazole by checker board microdilution assay; format: functional
[3] = tested on: Candida albicans; assay: Synergistic antifungal activity against fluconazole-resistant Candida albicans 632 assessed as inhibition of fungal growth in presence of fluconazole by checker board microdilution assay; format: functional
[4] = tested on: Candida albicans; assay: Synergistic antifungal activity against fluconazole-resistant Candida albicans 100 assessed as inhibition of fungal growth in presence of fluconazole by checker board microdilution assay; format: functional
[5] = tested on: Candida albicans; assay: Synergistic antifungal activity against fluconazole-resistant Candida albicans 103 assessed as inhibition of fungal growth in presence of fluconazole by checker board microdilution assay; format: functional
[6] = tested on: Candida albicans; assay: Synergistic antifungal activity against fluconazole-resistant Candida albicans 311 assessed as inhibition of fungal growth in presence of fluconazole by checker board microdilution assay; format: functional
[7] = tested on: Candida albicans; assay: Antifungal activity against fluconazole-resistant Candida albicans 901 assessed as inhibition of fungal growth by checker board microdilution assay; format: functional
[8] = tested on: Candida albicans; assay: Antifungal activity against fluconazole-resistant Candida albicans 904 assessed as inhibition of fungal growth by checker board microdilution assay; format: functional
[9] = tested on: Candida albicans; assay: Antifungal activity against fluconazole-resistant Candida albicans 632 assessed as inhibition of fungal growth by checker board microdilution assay; format: functional
[10] = tested on: Candida albicans; assay: Antifungal activity against fluconazole-resistant Candida albicans 100 assessed as inhibition of fungal growth by checker board microdilution assay; format: functional
[11] = tested on: Candida albicans; assay: Antifungal activity against fluconazole-resistant Candida albicans 103 assessed as inhibition of fungal growth by checker board microdilution assay; format: functional
[12] = tested on: Candida albicans; assay: Antifungal activity against fluconazole-resistant Candida albicans 311 assessed as inhibition of fungal growth by checker board microdilution assay; format: functional
[13] = tested on: Candida albicans; assay: Synergetic antifungal activity against fluconazole-resistant Candida albicans 901 assessed as fractional inhibitory concentration index in presence of fluconazole by checker board microdilution assay; format: functional
[14] = tested on: Candida albicans; assay: Synergetic antifungal activity against fluconazole-resistant Candida albicans 904 assessed as fractional inhibitory concentration index in presence of fluconazole by checker board microdilution assay; format: functional
[15] = tested on: Candida albicans; assay: Synergetic antifungal activity against fluconazole-resistant Candida albicans 632 assessed as fractional inhibitory concentration index in presence of fluconazole by checker board microdilution assay; format: functional
[16] = tested on: Candida albicans; assay: Synergetic antifungal activity against fluconazole-resistant Candida albicans 100 assessed as fractional inhibitory concentration index in presence of fluconazole by checker board microdilution assay; format: functional
[17] = tested on: Candida albicans; assay: Synergetic antifungal activity against fluconazole-resistant Candida albicans 103 assessed as fractional inhibitory concentration index in presence of fluconazole by checker board microdilution assay; format: functional
[18] = tested on: Candida albicans; assay: Synergetic antifungal activity against fluconazole-resistant Candida albicans 311 assessed as fractional inhibitory concentration index in presence of fluconazole by checker board microdilution assay; format: functional
[19] = tested on: A549; assay: Cytotoxicity against human A549 cell assessed as inhibition of cell growth after 24 hrs by MTT assay; format: functional, cell-based; details: A549, 24 h
[20] = tested on: MCF7; assay: Cytotoxicity against human MCF7 cell assessed as inhibition of cell growth after 24 hrs by MTT assay; format: functional, cell-based; details: MCF7, 24 h
[21] = tested on: HepG2; assay: Cytotoxicity against human HepG2 cell assessed as inhibition of cell growth after 24 hrs by MTT assay; format: functional, cell-based; details: HepG2, 24 h
[22] = Cytotoxicity against human THLE-2 cell assessed as inhibition of cell growth after 24 hrs by MTT assay; format: toxicity, cell-based; details: THLE-2 cells
[23] = Cytotoxicity against human BEAS-2B cell assessed as inhibition of cell growth after 24 hrs by MTT assay; format: toxicity, cell-based; details: BEAS-2B cells
[24] = Cytotoxicity against mouse NIH3T3 cell assessed as inhibition of cell growth after 24 hrs by MTT assay; format: toxicity, cell-based; details: NIH3T3 cells
[25] = tested on: RAW264.7; assay: Cytotoxicity against mouse RAW264.7 cell assessed as inhibition of cell growth after 24 hrs by MTT assay; format: functional, cell-based; details: RAW264.7, 24 h
[26] = Cytotoxicity against mouse BV-2 cell assessed as inhibition of cell growth after 24 hrs by MTT assay; format: toxicity, cell-based; details: BV-2 cells
[27] = Binding affinity to recombinant Candida albicans Hsp90 NBD expressed in Escherichia coli by SPR assay
[28] = molecular target: Heat shock protein HSP90 (Homo sapiens, UniProt P07900+P08238); assay: Binding affinity to human Hsp90 expressed in Escherichia coli by SPR assay
[29] = Metabolic stability in human liver microsomes assessed as half life in presence of NADPH cofactor under shaking condition for 10 mins measured after 5 to 60 mins by LC-MS/MS analysis; format: ADME, Microsome; details: time 15-70 min
[30] = Metabolic stability in human liver microsomes assessed as microsomal intrinsic clearance in presence of NADPH cofactor under shaking condition for 10 mins measured after 5 to 60 mins by LC-MS/MS analysis; format: ADME, Microsome; details: time 15-70 min
[31] = Metabolic stability in human liver microsomes assessed as intrinsic clearance in presence of NADPH cofactor under shaking condition for 10 mins measured after 5 to 60 mins by LC-MS/MS analysis; format: ADME, Microsome; details: time 15-70 min
[32] = Metabolic stability in human liver microsomes assessed as compound remaining in presence of NADPH cofactor under shaking condition for 10 mins measured after 60 mins by LC-MS/MS analysis; format: ADME, Microsome; details: time 70 min, read-out: Stability
[33] = Stability in human plasma assessed as compound remaining at 120 mins by LC-MS/MS analysis; format: ADME, cell-free; details: read-out: Stability
[34] = Stability in human plasma assessed as half life at 120 mins by LC-MS/MS analysis; format: ADME, cell-free
[35] = molecular target: T1, CYP1A2 (Homo sapiens, UniProt P05177); assay: Inhibition of CYP1A2 in human liver microsome at 10 uM using phenacetin as substrate incubated for 10 mins in presence of NADPH cofactor by LC-MS/MS analysis; format: ADME; details: liver microsomes, probe phenacetin
T1 sequence (P05177 whole entry): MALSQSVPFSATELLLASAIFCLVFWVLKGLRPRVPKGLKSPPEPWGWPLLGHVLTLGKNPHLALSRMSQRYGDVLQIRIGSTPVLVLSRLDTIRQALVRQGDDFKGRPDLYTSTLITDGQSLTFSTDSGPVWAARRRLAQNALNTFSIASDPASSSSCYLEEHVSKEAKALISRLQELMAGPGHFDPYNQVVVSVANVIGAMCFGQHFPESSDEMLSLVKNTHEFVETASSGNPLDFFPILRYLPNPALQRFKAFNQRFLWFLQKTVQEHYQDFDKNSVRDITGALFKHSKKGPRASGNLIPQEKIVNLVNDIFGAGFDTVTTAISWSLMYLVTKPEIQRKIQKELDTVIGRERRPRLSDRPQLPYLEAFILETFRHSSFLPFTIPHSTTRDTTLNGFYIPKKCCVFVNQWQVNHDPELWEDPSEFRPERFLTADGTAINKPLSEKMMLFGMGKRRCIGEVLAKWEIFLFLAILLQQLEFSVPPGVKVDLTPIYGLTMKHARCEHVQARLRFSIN

[36] = molecular target: CYP2C9 (Homo sapiens, UniProt P11712); assay: Inhibition of CYP2C9 in human liver microsome at 10 uM using diclofenac as substrate incubated for 10 mins in presence of NADPH cofactor by LC-MS/MS analysis; format: ADME; details: liver microsomes, probe diclofenac
[37] = molecular target: CYP2C19 (Homo sapiens, UniProt P33261); assay: Inhibition of CYP2C19 in human liver microsome at 10 uM using S-mephenytoin as substrate incubated for 10 mins in presence of NADPH cofactor by LC-MS/MS analysis; format: ADME; details: liver microsomes, probe S-mephenytoin
[38] = molecular target: CYP2D6 (Homo sapiens, UniProt P10635); assay: Inhibition of CYPD6 in human liver microsome at 10 uM using dextromethorphan as substrate incubated for 10 mins in presence of NADPH cofactor by LC-MS/MS analysis; format: ADME; details: liver microsomes, probe dextromethorphan
[39] = molecular target: CYP3A4 (Homo sapiens, UniProt P08684); assay: Inhibition of CYP3A4 in human liver microsome at 10 uM using midazolam as substrate incubated for 10 mins in presence of NADPH cofactor by LC-MS/MS analysis; format: ADME; details: liver microsomes, probe midazolam
[40] = tested on: Candida albicans; assay: Potentiation of fluconazole-induced antifungal activity against fluconazole-resistant Candida albicans 901 assessed as fluconazole MIC by checker board microdilution assay; format: functional
[41] = tested on: Candida albicans; assay: Potentiation of fluconazole-induced antifungal activity against fluconazole-resistant Candida albicans 904 assessed as fluconazole MIC by checker board microdilution assay; format: functional
[42] = tested on: Candida albicans; assay: Potentiation of fluconazole-induced antifungal activity against fluconazole-resistant Candida albicans 632 assessed as fluconazole MIC by checker board microdilution assay; format: functional
[43] = tested on: Candida albicans; assay: Potentiation of fluconazole-induced antifungal activity against fluconazole-resistant Candida albicans 100 assessed as fluconazole MIC by checker board microdilution assay; format: functional
[44] = tested on: Candida albicans; assay: Potentiation of fluconazole-induced antifungal activity against fluconazole-resistant Candida albicans 103 assessed as fluconazole MIC by checker board microdilution assay; format: functional
[45] = tested on: Candida albicans; assay: Potentiation of fluconazole-induced antifungal activity against fluconazole-resistant Candida albicans 311 assessed as fluconazole MIC by checker board microdilution assay; format: functional

Chain of CYP2C9 (P11712 whole entry): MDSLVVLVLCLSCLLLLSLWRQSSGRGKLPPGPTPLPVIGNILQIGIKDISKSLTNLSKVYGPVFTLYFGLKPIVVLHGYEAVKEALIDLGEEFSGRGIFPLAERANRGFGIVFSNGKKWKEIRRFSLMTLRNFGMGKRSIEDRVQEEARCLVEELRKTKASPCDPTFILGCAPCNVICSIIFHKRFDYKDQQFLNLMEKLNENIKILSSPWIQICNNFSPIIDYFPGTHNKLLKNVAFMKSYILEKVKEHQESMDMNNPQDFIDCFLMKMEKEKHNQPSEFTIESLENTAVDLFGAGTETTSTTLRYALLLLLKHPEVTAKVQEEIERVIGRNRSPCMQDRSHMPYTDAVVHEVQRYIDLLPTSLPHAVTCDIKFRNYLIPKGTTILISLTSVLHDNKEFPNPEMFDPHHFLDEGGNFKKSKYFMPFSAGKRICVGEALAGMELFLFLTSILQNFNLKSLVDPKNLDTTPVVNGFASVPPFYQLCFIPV
Chain of CYP2C19 (P33261 whole entry): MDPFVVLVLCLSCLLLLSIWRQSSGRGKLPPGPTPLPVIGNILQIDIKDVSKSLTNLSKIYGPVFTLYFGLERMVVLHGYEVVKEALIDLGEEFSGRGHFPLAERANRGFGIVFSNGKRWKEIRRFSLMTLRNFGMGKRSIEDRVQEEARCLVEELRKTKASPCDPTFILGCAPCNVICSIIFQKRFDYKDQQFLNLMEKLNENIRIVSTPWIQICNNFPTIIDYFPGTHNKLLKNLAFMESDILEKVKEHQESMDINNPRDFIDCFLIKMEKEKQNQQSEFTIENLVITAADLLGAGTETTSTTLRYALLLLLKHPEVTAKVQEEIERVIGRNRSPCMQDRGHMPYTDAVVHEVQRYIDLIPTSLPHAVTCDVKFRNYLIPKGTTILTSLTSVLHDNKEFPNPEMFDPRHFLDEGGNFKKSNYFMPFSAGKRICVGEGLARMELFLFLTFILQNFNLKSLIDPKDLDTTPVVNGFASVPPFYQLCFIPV
Chain of CYP3A4 (P08684 whole entry): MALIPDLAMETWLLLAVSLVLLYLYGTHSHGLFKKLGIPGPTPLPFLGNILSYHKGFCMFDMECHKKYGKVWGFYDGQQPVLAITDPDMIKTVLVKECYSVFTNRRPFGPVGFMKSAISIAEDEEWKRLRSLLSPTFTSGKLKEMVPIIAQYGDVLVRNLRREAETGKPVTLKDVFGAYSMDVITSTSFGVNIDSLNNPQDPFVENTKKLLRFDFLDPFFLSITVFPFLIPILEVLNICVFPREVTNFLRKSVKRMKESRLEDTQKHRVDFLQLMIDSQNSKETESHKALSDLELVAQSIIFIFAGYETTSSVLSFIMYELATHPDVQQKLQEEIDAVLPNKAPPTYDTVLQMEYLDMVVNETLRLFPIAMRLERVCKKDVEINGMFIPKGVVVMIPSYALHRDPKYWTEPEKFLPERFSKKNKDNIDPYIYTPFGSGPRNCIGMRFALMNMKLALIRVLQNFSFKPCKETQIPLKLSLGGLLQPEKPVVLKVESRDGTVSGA
Chain of CYP2D6 (P10635 whole entry): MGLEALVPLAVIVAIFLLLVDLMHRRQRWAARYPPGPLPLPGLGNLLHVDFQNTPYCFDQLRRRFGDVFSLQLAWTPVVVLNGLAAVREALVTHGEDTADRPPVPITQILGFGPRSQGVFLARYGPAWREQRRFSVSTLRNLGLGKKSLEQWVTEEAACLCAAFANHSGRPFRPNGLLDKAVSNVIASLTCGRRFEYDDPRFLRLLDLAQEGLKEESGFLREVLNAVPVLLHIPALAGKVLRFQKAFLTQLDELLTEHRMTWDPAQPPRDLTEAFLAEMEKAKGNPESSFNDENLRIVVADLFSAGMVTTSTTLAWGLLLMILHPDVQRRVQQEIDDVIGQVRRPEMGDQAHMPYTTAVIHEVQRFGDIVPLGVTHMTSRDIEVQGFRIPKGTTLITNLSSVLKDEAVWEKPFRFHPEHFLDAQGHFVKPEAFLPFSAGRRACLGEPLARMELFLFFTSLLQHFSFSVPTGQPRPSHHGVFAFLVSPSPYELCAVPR

With `CCNC(=O)c1noc(-c2cc(-c3ccc(C)cc3)c(O)cc2O)c1-c1ccc(CN2CCCCC2)cc1` the MIC80 [1] was 0.25 µg/mL, the MIC80 [2] was 0.25 µg/mL and the MIC80 [3] was 0.5 µg/mL. It also gave an MIC80 [4] of 0.25 µg/mL, an MIC80 [5] of 0.5 µg/mL and an MIC80 [6] of 1 µg/mL. For the same compound, the MIC80 [7] was over 64 µg/mL, the MIC80 [8] was over 64 µg/mL and the MIC80 [9] was over 64 µg/mL. The MIC80 [10] was over 64 µg/mL, the MIC80 [11] was over 64 µg/mL and the MIC80 [12] was over 64 µg/mL. For the same compound, the “fractional inhibitory concentration index (FICI)” value [13] was 0.02, the “fractional inhibitory concentration index (FICI)” value [14] was 0.035 and the “fractional inhibitory concentration index (FICI)” value [15] was 0.039. For the same compound, the “fractional inhibitory concentration index (FICI)” value [16] was 0.02, the “fractional inhibitory concentration index (FICI)” value [17] was 0.039 and the “fractional inhibitory concentration index (FICI)” value [18] was 0.047. It also gave an IC50 [19] of 13.8 µM, an IC50 [20] of 5.49 µM and an IC50 [21] of 4.71 µM. The IC50 at 24 h [22] was 5.72 µM, the IC50 at 24 h [23] was 10 µM and the IC50 at 24 h [24] was 0.73 µM. For the same compound, the IC50 [25] was 3.87 µM, the IC50 at 24 h [26] was 4.06 µM and the Kd [27] was 0.139 µM. For the same compound, the Kd [28] was over 25 µM, the half-life [29] was 43.3 min and the CLint [30] was 32 µL/min/mg. It also gave a CLint [31] of 28.8 mL/min/kg, a remaining at 1.167 h [32] of 37.9% and a remaining at 2 h [33] of 90.6%. The half-life [34] was over 288 min, the inhibition at 10 min, 10 µM [35] was 12% and the inhibition at 10 min, 10 µM [36] was 39.2%. It also gave an inhibition at 10 min, 10 µM [37] of 25.4%, an inhibition at 10 min, 10 µM [38] of 76.6% and an inhibition at 10 min, 10 µM [39] of 39.8%. It also gave an MIC80 [40] of 1 µg/mL, an MIC80 [41] of 2 µg/mL and an MIC80 [42] of 2 µg/mL. For the same compound, the MIC80 [43] was 1 µg/mL, the MIC80 [44] was 2 µg/mL and the MIC80 [45] was 2 µg/mL.
